18 compounds from PubChem BioAssay AID256 (DTP/NCI, 2004) can be followed below.

Where “and” joins values, the source holds several entries; their conditions need not be identical. Equal values may be shown once. Inconclusive results and toxic doses are left out. Non-standard residues stand in square brackets, D forms with d. Residues, ends and D or L forms follow the SMILES beside them. Ac5c = NC1(C(=O)O)CCCC1

The test deals with CD2F1 mice, L1210 leukemia ip, survival T/C. As to the kind of experiment: NCI In Vivo Anticancer Drug Screen. Data for tumor model L1210 Leukemia (intraperitoneal) in CD2F1 (CDF1) mice. To be noted: higher = longer survival. As for the experimental part: The antitumor activity of compounds was measured in mice bearing transplantable tumors. Survival or tumor size were measured and the results are expressed as the measurement made in the treated group (T) divided by the measurement made in the vehicle treated control group (C). The tumor model used in this assay is L1210 Leukemia (intraperitoneal) in CD2F1 (CDF1) mice

The mark [1] stands for this setting: endpoint: mean survival time, dose: 100.0 mg/kg/injection, schedule: Q04DX003 (ip), vehicle: saline with Tween-80.
Where [2] appears, read: endpoint: mean survival time, dose: 100.0 mg/kg/injection, schedule: Q01DX009 (ip), vehicle: saline with Tween-80.
Where [3] appears, read: endpoint: mean survival time, dose: 200.0 mg/kg/injection, schedule: Q01DX009 (ip), vehicle: saline with Tween-80.
[4] abbreviates: endpoint: mean survival time, dose: 50.0 mg/kg/injection, schedule: Q01DX009 (ip), vehicle: saline with Tween-80.

Take `NCC(=O)NC1(C(=O)O)CCCC1` (H-Gly-[Ac5c]-OH): the T/C was 87 % of control (endpoint: mean survival time, dose: 62.5 mg/kg/injection, schedule: Q01DX001 (ip), vehicle: saline); 107 % of control (endpoint: mean survival time, dose: 62.5 mg/kg/injection, schedule: Q04DX003 (ip), vehicle: saline); 91 % of control (endpoint: mean survival time, dose: 125.0 mg/kg/injection, schedule: Q01DX001 (ip), vehicle: saline); 107 % of control (endpoint: mean survival time, dose: 125.0 mg/kg/injection, schedule: Q04DX003 (ip), vehicle: saline); 112 % of control (endpoint: mean survival time, dose: 250.0 mg/kg/injection, schedule: Q01DX001 (ip), vehicle: saline); 152 % of control (endpoint: mean survival time, dose: 500.0 mg/kg/injection, schedule: Q04DX003 (ip), vehicle: saline).
As for `C1=C[N]2c3c4c(ccc3=C1)=CC=C[N]4[Ga]2[c]1ccccc1`, the T/C under setting [1] was 118 % of control.
Consider `Cc1nc(N)[nH]c(=O)c1-n1nnc2ccccc2c1=O`, for which the T/C is, setting by setting: (endpoint: mean survival time, dose: 100.0 mg/kg/injection, schedule: Q01DX001 (ip), vehicle: saline with Tween-80) 92 % of control; (endpoint: mean survival time, dose: 200.0 mg/kg/injection, schedule: Q01DX001 (ip), vehicle: saline with Tween-80) 87 % of control; (endpoint: mean survival time, dose: 400.0 mg/kg/injection, schedule: Q01DX001 (ip), vehicle: saline with Tween-80) 89 % of control.
As to `C/C(C(=O)O)=C(\C)C(=O)O`, the T/C runs as follows: (endpoint: mean survival time, dose: 100.0 mg/kg/injection, schedule: Q01DX005 (ip), vehicle: saline) 101 % of control; (endpoint: mean survival time, dose: 200.0 mg/kg/injection, schedule: Q01DX005 (ip), vehicle: saline) 101 % of control; (endpoint: mean survival time, dose: 400.0 mg/kg/injection, schedule: Q01DX005 (ip), vehicle: saline) 101 % of control.
With `CCCCc1ccc(N=C(N)N=C(N)N)cc1`, the T/C runs as follows: (endpoint: mean survival time, dose: 9.5 mg/kg/injection, schedule: Q01DX001 (ip), vehicle: other) 103 % of control; (endpoint: mean survival time, dose: 19.0 mg/kg/injection, schedule: Q01DX001 (ip), vehicle: other) 94 % of control; (endpoint: mean survival time, dose: 38.0 mg/kg/injection, schedule: Q01DX001 (ip), vehicle: other) 91 % of control.
With `O=C(O)CC1(Br)C(=O)Nc2ccccc21` (configuration not stated), the T/C is 98 % of control (endpoint: mean survival time, dose: 100.0 mg/kg/injection, schedule: Q04DX003 (ip), vehicle: Klucel (hydroxypropylcellulose) (HPC)); 102 % of control (endpoint: mean survival time, dose: 200.0 mg/kg/injection, schedule: Q04DX003 (ip), vehicle: Klucel (hydroxypropylcellulose) (HPC)); 98 % of control (endpoint: mean survival time, dose: 400.0 mg/kg/injection, schedule: Q04DX003 (ip), vehicle: Klucel (hydroxypropylcellulose) (HPC)).
On to `CCN(CC)C(=S)Nc1ccc(Cl)cc1`, for which the T/C is 102 % of control (endpoint: mean survival time, dose: 100.0 mg/kg/injection, schedule: Q04DX002 (ip), vehicle: saline with Tween-80); 102 % of control (endpoint: mean survival time, dose: 200.0 mg/kg/injection, schedule: Q04DX002 (ip), vehicle: saline with Tween-80); 102 % of control (endpoint: mean survival time, dose: 400.0 mg/kg/injection, schedule: Q04DX002 (ip), vehicle: saline with Tween-80).
As for `CCC(=O)Sc1ccccc1C(=O)Nc1ccc(Cl)cc1`, the T/C (endpoint: median survival time, dose: 25.0 mg/kg/injection, schedule: Q01DX009 (ip), vehicle: saline with Tween-80) is 112 % of control; the T/C (endpoint: median survival time, dose: 50.0 mg/kg/injection, schedule: Q01DX009 (ip), vehicle: saline with Tween-80) was 111 % of control; the T/C (endpoint: median survival time, dose: 100.0 mg/kg/injection, schedule: Q01DX009 (ip), vehicle: saline with Tween-80) is 107 % of control; the T/C (endpoint: median survival time, dose: 200.0 mg/kg/injection, schedule: Q01DX009 (ip), vehicle: saline with Tween-80) was 112 % of control; the T/C (endpoint: median survival time, dose: 400.0 mg/kg/injection, schedule: Q01DX009 (ip), vehicle: saline with Tween-80) was 86 % of control.
On to `CC(=O)OCc1c(Cl)ccc(Cl)c1Cl`, for which the T/C was 98 % of control under setting [2]; 107 % of control (endpoint: mean survival time, dose: 100.0 mg/kg/injection, schedule: Q04DX003 (ip), vehicle: saline sonified); 100 % of control under setting [3]; 96 % of control (endpoint: mean survival time, dose: 200.0 mg/kg/injection, schedule: Q04DX003 (ip), vehicle: saline sonified); 100 % of control (endpoint: mean survival time, dose: 400.0 mg/kg/injection, schedule: Q01DX009 (ip), vehicle: saline with Tween-80); 96 % of control (endpoint: mean survival time, dose: 400.0 mg/kg/injection, schedule: Q04DX003 (ip), vehicle: saline sonified).
On to `C=CC1CCCCC1C=C` (configuration not stated), for which the T/C runs as follows: under setting [1], 110 % of control; (endpoint: mean survival time, dose: 200.0 mg/kg/injection, schedule: Q04DX003 (ip), vehicle: saline with Tween-80) 102 % of control; (endpoint: mean survival time, dose: 400.0 mg/kg/injection, schedule: Q04DX003 (ip), vehicle: saline with Tween-80) 100 % of control.
As to `O=S(=O)(Nc1c2ccccc2c(NS(=O)(=O)c2ccccc2)c2ccccc12)c1ccccc1`, the T/C is, setting by setting: (endpoint: mean survival time, dose: 25.0 mg/kg/injection, schedule: Q01DX001 (ip), vehicle: saline sonified) 96 % of control; (endpoint: mean survival time, dose: 50.0 mg/kg/injection, schedule: Q01DX001 (ip), vehicle: saline sonified) 90 % of control; (endpoint: mean survival time, dose: 100.0 mg/kg/injection, schedule: Q01DX001 (ip), vehicle: saline sonified) 95 % of control.
Take `CCOCCO`: the T/C by setting is: (endpoint: mean survival time, dose: 5.0 mg/kg/injection, schedule: Q01DX001 (ip), vehicle: saline sonified) 103 % of control; (endpoint: mean survival time, dose: 10.0 mg/kg/injection, schedule: Q01DX001 (ip), vehicle: saline sonified) 101 % of control; (endpoint: mean survival time, dose: 20.0 mg/kg/injection, schedule: Q01DX001 (ip), vehicle: saline sonified) 101 % of control.
In the case of `O=C(NCc1ccccc1)C(Cc1ccccc1)(Cc1ccccc1)C(=O)NCc1ccccc1`, the T/C was 102 % of control under setting [4], 97 % of control under setting [2] and 93 % of control under setting [3].
Turning to `N#CCN(CC#N)CC#N`, the T/C was 97 % of control (endpoint: mean survival time, dose: 1.56 mg/kg/injection, schedule: Q01DX009 (ip), vehicle: saline); 92 % of control (endpoint: mean survival time, dose: 3.13 mg/kg/injection, schedule: Q01DX009 (ip), vehicle: saline); 100 % of control (endpoint: mean survival time, dose: 6.25 mg/kg/injection, schedule: Q01DX009 (ip), vehicle: saline).
For the compound `COP12(OCCO1)SC(C(F)(F)F)=C(C(F)(F)F)S2`, the T/C is 102 % of control and 109 % of control (endpoint: mean survival time, dose: 12.5 mg/kg/injection, schedule: Q01DX009 (ip), vehicle: saline with Tween-80); 96 % of control and 101 % of control (endpoint: mean survival time, dose: 25.0 mg/kg/injection, schedule: Q01DX009 (ip), vehicle: saline with Tween-80); 100 % of control under setting [4].
In the case of `O=c1cc(O)c(Cl)n[nH]1`, the T/C reads like this: (endpoint: mean survival time, dose: 25.0 mg/kg/injection, schedule: Q01DX009 (ip), vehicle: other) 94 % of control; (endpoint: mean survival time, dose: 50.0 mg/kg/injection, schedule: Q01DX009 (ip), vehicle: other) 94 % of control; (endpoint: mean survival time, dose: 100.0 mg/kg/injection, schedule: Q01DX009 (ip), vehicle: other) 97 % of control; (endpoint: mean survival time, dose: 200.0 mg/kg/injection, schedule: Q01DX009 (ip), vehicle: other) 92 % of control; (endpoint: mean survival time, dose: 400.0 mg/kg/injection, schedule: Q01DX009 (ip), vehicle: other) 88 % of control.
Turning to `COC1=CCC2=C(CCO2)C1`, the T/C was 91 % of control (endpoint: mean survival time, dose: 100.0 mg/kg/injection, schedule: Q01DX009 (ip), vehicle: acetone); 98 % of control (endpoint: mean survival time, dose: 200.0 mg/kg/injection, schedule: Q01DX009 (ip), vehicle: acetone); 100 % of control (endpoint: mean survival time, dose: 400.0 mg/kg/injection, schedule: Q01DX009 (ip), vehicle: acetone).
For the compound `CN(/N=C/c1ccccc1)C(=S)Nc1ccccc1`, the T/C (endpoint: mean survival time, dose: 31.25 mg/kg/injection, schedule: Q04DX003 (ip), vehicle: Klucel (hydroxypropylcellulose) (HPC)) is 101 % of control; the T/C (endpoint: mean survival time, dose: 62.5 mg/kg/injection, schedule: Q04DX003 (ip), vehicle: Klucel (hydroxypropylcellulose) (HPC)) was 103 % of control; the T/C (endpoint: mean survival time, dose: 125.0 mg/kg/injection, schedule: Q04DX003 (ip), vehicle: Klucel (hydroxypropylcellulose) (HPC)) was 100 % of control.
